The source of these data is patent US20260166159A1, “KRAS G12D DEGRADATION AGENT, AND PREPARATION METHOD AND USE THEREFOR” (LEADINGTAC PHARMACEUTICAL (SHAOXING) CO., LTD., priority 2022, published 2026).

Where only a bound is given, the exact number is not on record here.

One test addresses T1, KRAS-G12D (Homo sapiens, UniProt P01116, G12D).
T1 construct: endogenous in cells; host or cells: A-427 (ATCC), AGS, AsPc-1, Panc 04.03
As to the kind of experiment: KRAS-G12D degradation assay (Western Blot), A-427 cells. Conditions: A427 cells, 24 h, class symbols; for Dmax: A-427. It counts as cell-based. An outline of the steps:
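Each KRAS G12D mutant line (A-427, AGS, AsPc-1, Panc 04.03) was seeded at 5×10^5 cells/well and treated 24 h at 37 °C with 0.03–3000 nM compound (final DMSO 0.25%). KRAS in lysates was measured by Western blot, normalized to β-actin and compared with controls, giving DC50 and Dmax from curve fits.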

In the next test the test system is phosphorylated ERK. As to the kind of experiment: KRAS G12D-mediated phosphorylated ERK inhibition assay (AlphaLISA), A427. Format: cell-based. The settings on record: Homo sapiens, A-427; A427 cells; class symbols; read-out: pERK (A427) IC50. The method, then: The relative amounts of phosphorylated ERK and total ERK in the samples were separately determined according to the test methods provided in the instructions of the AlphaLISA SureFire Ultra p-ERK 1/2 (Thr202/Tyr204) kit (PerkinElmer) and the AlphaLISA SureFire Ultra TotalERK 1/2 kit (PerkinElmer).
The experimental procedures for the assay of the phosphorylated ERK and total ERK were as follows: 10 μL of each sample was added to a 384-well plate (Greiner), and 5 μL of the prepared Acceptor Beads (PerkinElmer) mixed solution (containing 50× Acceptor Beads 615, Activation Buffer, and equal volumes of Reaction Buffer 1 and Reaction Buffer 2) was added to each well; and the plate was incubated at room temperature for 2 h. Then 5 μL of 1× Donor Beads (PerkinElmer) diluted with Dilution Buffer was added to each well, and the plate was incubated at room temperature overnight. After the incubation was completed, AlphaLISA signal values for the phosphorylated ERK and total ERK were separately measured on an EnVision microplate reader (PerkinElmer) in the AlphaScreen standard mode. The following formula was adopted: phosphorylated ERK correction value=phosphorylated ERK AlphaLISA signal value/total ERK AlphaLISA signal value. The relative ratio of the phosphorylated ERK for each sample was calculated. The percentage inhibition rates of the compounds on the phosphorylated ERK at each concentration were calculated by comparing the relative value of the phosphorylated ERK with that of the DMSO control well. Then non-linear curve fittings for logarithmic concentration-inhibition rate were performed by the GraphPad Prism 8 analysis software, and the IC50 values of the compounds on the inhibition of the phosphorylated ERK were obtained (Table 2).

T1 sequence (P01116 1-188 isoform P01116-2 G12D): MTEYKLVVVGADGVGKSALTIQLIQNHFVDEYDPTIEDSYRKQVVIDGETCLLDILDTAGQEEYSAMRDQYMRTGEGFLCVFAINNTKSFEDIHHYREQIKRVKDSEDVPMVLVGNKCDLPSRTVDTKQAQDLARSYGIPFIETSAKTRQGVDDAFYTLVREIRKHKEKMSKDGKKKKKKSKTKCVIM

For `C#Cc1c(F)ccc2cc(O)cc(-c3ncc4c(N5CC6CCC(C5)N6)nc(OCC5(CN6CCN(CC7CCC8(CC7)CCN(C(=O)c7ccc(Cl)c(N9CCC(=O)NC9=O)c7)CC8)CC6)CC5)nc4c3F)c12` [Example 6, 1-(5-(9-((4-((1-(((4-(3,8-diazabicyclo[3.2.1]octan-3-yl)-7-(8-ethynyl-7-fluoro-3-hydroxynaphthalen-1-yl)-8-fluoropyrido[4,3-d]pyrimidin-2-yl)oxy)methyl)cyclopropyl)methyl)piperazin-1-yl)methyl)-3-azaspiro[5.5]undecane-3-carbonyl)-2-chlorophenyl)dihydropyrimidine-2,4(1H,3H)-dione], at KRAS-G12D, the DC50 is no more than 50 nM and the Dmax is 80 to 100%. Moreover, the IC50 in the test on phosphorylated ERK was no more than 50 nM.

As to `C#Cc1c(F)ccc2cc(O)cc(-c3ncc4c(N5CC6CCC(C5)N6)nc(OCC5(CN6CCC(CCOCC7CCN(C(=O)c8ccc(Cl)c(N9CCC(=O)NC9=O)c8)CC7)CC6)CC5)nc4c3F)c12` [Example 10], at KRAS-G12D, the DC50 is no more than 50 nM and the Dmax is 80 to 100%. Also, the IC50 with phosphorylated ERK was no more than 50 nM.

On KRAS-G12D, `C#Cc1c(F)ccc2cc(O)cc(-c3ncc4c(N5CC6CCC(C5)N6)nc(OCC(C)(C)CN5CCN(CC6CCC7(CC6)CCN(C(=O)c6ccc(OC)c(N8CCC(=O)NC8=O)c6)CC7)CC5)nc4c3F)c12` [Example 26, 1-(5-(9-((4-(3-((4-(3,8-diazabicyclo[3.2.1]octan-3-yl)-7-(8-ethynyl-7-fluoro-3-hydroxynaphthalen-1-yl)-8-fluoropyrido[4,3-d]pyrimidin-2-yl)oxy)-2,2-dimethylpropyl)piperazin-1-yl)methyl)-3-azaspiro[5.5]undecane-3-carbonyl)-2-methoxyphenyl)dihydropyrimidine-2,4(1H,3H)-dione] registered a 50% degradation concentration (DC50) of 1000 to 10000 nM and a Dmax of 30 to 50%. For the same compound, the IC50 in the test on phosphorylated ERK was no more than 50 nM.

On KRAS-G12D, `CCc1c(F)ccc2cc(O)cc(-c3ncc4c(N5CC6CCC(C5)N6)nc(OCC5(CN6CCN(CCCC7CCN(C(=O)c8ccc(Cl)c(N9CCC(=O)NC9=O)c8)CC7)CC6)CC5)nc4c3F)c12` [Example 22, 1-(5-(4-(3-(4-((1-(((4-(3,8-diazabicyclo[3.2.1]octan-3-yl)-7-(8-ethyl-7-fluoro-3-hydroxynaphthalen-1-yl)-8-fluoropyrido[4,3-d]pyrimidin-2-yl)oxy)methyl)cyclopropyl)methyl)piperazin-1-yl)propyl)piperidine-1-carbonyl)-2-chlorophenyl)dihydropyrimidine-2,4(1H,3H)-dione] showed a DC50 of no more than 50 nM and a Dmax of 50 to 80%. In the test on phosphorylated ERK, the IC50 is no more than 50 nM.

On to `CCc1cccc2cc(O)cc(-c3ncc4c(N5CC6CCC(C5)N6)nc(OCC5(CN6CCN(CCCC7CCN(C(=O)c8ccc(Cl)c(N9CCC(=O)NC9=O)c8)CC7)CC6)CC5)nc4c3F)c12` [Example 19, 1-(5-(4-(3-(4-((1-(((4-(3,8-diazabicyclo[3.2.1]octan-3-yl)-7-(8-ethyl-3-hydroxynaphthalen-1-yl)-8-fluoropyrido[4,3-d]pyrimidin-2-yl)oxy)methyl)cyclopropyl)methyl)piperazin-1-yl)propyl)piperidine-1-carbonyl)-2-chlorophenyl)dihydropyrimidine-2,4(1H,3H)-dione], for which, on KRAS-G12D, the DC50 was in the range of 50 to 100 nM and the Dmax was 80 to 100%. For the same compound, the IC50 in the test on phosphorylated ERK is no more than 50 nM.

`C#Cc1c(F)ccc2cc(O)cc(-c3ncc4c(N5CC6CCC(C5)N6)nc(OCC5(CN6CCN(CCCC7CCC8(CC7)CCN(C(=O)c7ccc(Cl)c(N9CCC(=O)NC9=O)c7)CC8)CC6)CC5)nc4c3F)c12` [Example 7, 1-(5-(9-(3-(4-((1-(((4-(3,8-diazabicyclo[3.2.1]octan-3-yl)-7-(8-ethynyl-7-fluoro-3-hydroxynaphthalen-1-yl)-8-fluoropyrido[4,3-d]pyrimidin-2-yl)oxy)methyl)cyclopropyl)methyl)piperazin-1-yl)propyl)-3-azaspiro[5.5]undecane-3-carbonyl)-2-chlorophenyl)dihydropyrimidine-2,4(1H,3H)-dione]: on KRAS-G12D, the DC50 was no more than 50 nM and the Dmax lay in the range of 80 to 100%. In addition, the IC50 with phosphorylated ERK was no more than 50 nM.

Turning to `C#Cc1c(F)ccc2cc(O)cc(-c3ncc4c(N5CC6CCC(C5)N6)nc(OCC5(CN6CCN(CCCC7CCN(C(=O)c8ccc(OC)c(N9CCC(=O)NC9=O)c8)CC7)CC6)CC5)nc4c3F)c12` [Example 8, 1-(5-(4-(3-(4-((1-(((4-(3,8-diazabicyclo[3.2.1]octan-3-yl)-7-(8-ethynyl-7-fluoro-3-hydroxynaphthalen-1-yl)-8-fluoropyrido[4,3-d]pyrimidin-2-yl)oxy)methyl)cyclopropyl)methyl)piperazin-1-yl)propyl)piperidine-1-carbonyl)-2-methoxyphenyl)dihydropyrimidine-2,4(1H,3H)-dione], on KRAS-G12D, the DC50 is no more than 50 nM and the Dmax fell in the range of 50 to 80%. For the same compound, the IC50 in the test with phosphorylated ERK is no more than 50 nM.

On KRAS-G12D, `C#Cc1c(F)ccc2cc(O)cc(-c3ncc4c(N5CC6CCC(C5)N6)nc(OCC5(CN6CCN(CC7CCC8(CC7)CCN(C(=O)c7ccc(OC)c(N9CCC(=O)NC9=O)c7)CC8)CC6)CCC5)nc4c3F)c12` [Example 25, 1-(5-(9-((4-((1-(((4-(3,8-diazabicyclo[3.2.1]octan-3-yl)-7-(8-ethynyl-7-fluoro-3-hydroxynaphthalen-1-yl)-8-fluoropyrido[4,3-d]pyrimidin-2-yl)oxy)methyl)cyclobutyl)methyl)piperazin-1-yl)methyl)-3-azaspiro[5.5]undecane-3-carbonyl)-2-methoxyphenyl)dihydropyrimidine-2,4(1H,3H)-dione] yielded a DC50 of no more than 50 nM and a Dmax of 50 to 80%. Further, the IC50 with phosphorylated ERK was 100 to 500 nM.

On KRAS-G12D, `CCc1c(F)ccc2cc(O)cc(-c3ncc4c(N5CC6CCC(C5)N6)nc(OCC5(CN6CCN(CC7CCC8(CC7)CCN(C(=O)c7ccc(OC)c(N9CCC(=O)NC9=O)c7)CC8)CC6)CC5)nc4c3F)c12` [Example 15, 1-(5-(9-((4-((1-(((4-(3,8-diazabicyclo[3.2.1]octan-3-yl)-7-(8-ethyl-7-fluoro-3-hydroxynaphthalen-1-yl)-8-fluoropyrido[4,3-d]pyrimidin-2-yl)oxy)methyl)cyclopropyl)methyl)piperazin-1-yl)methyl)-3-azaspiro[5.5]undecane-3-carbonyl)-2-methoxyphenyl)dihydropyrimidine-2,4(1H,3H)-dione] registered a 50% degradation concentration (DC50) of no more than 50 nM and a Dmax of 80 to 100%. Also, the IC50 in the test on phosphorylated ERK is no more than 50 nM.

As to `C#Cc1c(F)ccc2cc(O)cc(-c3ncc4c(N5CC6CCC(C5)N6)nc(OCC5(CN6CCN(CCC7CCN(C(=O)c8ccc(Cl)c(N9CCC(=O)NC9=O)c8)CC7)CC6)CC5)nc4c3F)c12` [Example 3, 1-(5-(4-(2-(4-((1-(((4-(3,8-diazabicyclo[3.2.1]octan-3-yl)-7-(8-ethynyl-7-fluoro-3-hydroxynaphthalen-1-yl)-8-fluoropyrido[4,3-d]pyrimidin-2-yl)oxy)methyl)cyclopropyl)methyl)piperazin-1-yl)ethyl)piperidine-1-carbonyl)-2-chlorophenyl)dihydropyrimidine-2,4(1H,3H)-dione], at KRAS-G12D, the DC50 is no more than 50 nM and the Dmax was 50 to 80%. Moreover, the 50% inhibitory concentration (IC50) in the test on phosphorylated ERK fell in the range of 50 to 100 nM.

At KRAS-G12D, `C#Cc1c(F)ccc2cc(O)cc(-c3ncc4c(N5CC6CCC(C5)N6)nc(OCC5(CN6CCN(CCC7CCC8(CC7)CCN(C(=O)c7ccc(Cl)c(N9CCC(=O)NC9=O)c7)CC8)CC6)CC5)nc4c3F)c12` [Example 18, 1-(5-(9-(2-(4-((1-(((4-(3,8-diazabicyclo[3.2.1]octan-3-yl)-7-(8-ethynyl-7-fluoro-3-hydroxynaphthalen-1-yl)-8-fluoropyrido[4,3-d]pyrimidin-2-yl)oxy)methyl)cyclopropyl)methyl)piperazin-1-yl)ethyl)-3-azaspiro[5.5]undecane-3-carbonyl)-2-chlorophenyl)dihydropyrimidine-2,4(1H,3H)-dione] had a half-maximal degradation concentration (DC50) of no more than 50 nM and a Dmax of 80 to 100%. Besides, the IC50 in the test on phosphorylated ERK was no more than 50 nM.

At KRAS-G12D, `C#Cc1c(F)ccc2cc(O)cc(-c3ncc4c(N5CC6CCC(C5)N6)nc(OCC5(CN6CCN(CC7CCC8(CC7)CCN(C(=O)c7ccc(OC)c(N9CCC(=O)NC9=O)c7)CC8)CC6)CC5)nc4c3F)c12` [Example 14, 1-(5-(9-((4-((1-(((4-(3,8-diazabicyclo[3.2.1]octan-3-yl)-7-(8-ethynyl-7-fluoro-3-hydroxynaphthalen-1-yl)-8-fluoropyrido[4,3-d]pyrimidin-2-yl)oxy)methyl)cyclopropyl)methyl)piperazin-1-yl)methyl)-3-azaspiro[5.5]undecane-3-carbonyl)-2-methoxyphenyl)dihydropyrimidine-2,4(1H,3H)-dione] registered a DC50 of no more than 50 nM and a Dmax of 80 to 100%. Also, the IC50 with phosphorylated ERK was no more than 50 nM.

A word on the DC50: it is the midpoint of the concentration-degradation curve. Low readings indicate degradation at low concentration, high ones degradation only at high concentration. Usually Dmax stands for the largest share of the target that was removed. High values mean deep degradation, low ones shallow degradation. Broadly, the IC50 is the concentration at which inhibition is half-maximal.
